Common to all, as to format: biochemical
Test [1] addresses T1, human recombinant ROCK II (Homo sapiens, UniProt O75116).
T1 construct: N-terminal His6-tagged recombinant human ROCK-II residues 11-552; His6 (N); purchased Millipore GmbH, Schwalbach, Germany
Nature of the test: Determination of Rho kinase inhibition (Caliper peptide phosphorylation assay). The following applies: 60 min at 32° C., negative decadal logarithm of the IC50. The method, then: Determination of Rho Kinase Inhibition
To measure Rho-kinase inhibition, IC50 values were determined according to the following protocol:
Active human recombinant ROCK II (N-terminal His6-tagged recombinant human ROCK-II residues 11-552) was purchased from Millipore GmbH, Schwalbach, Germany. The peptide substrate, Fluorescein-[…]-COOH, was obtained from JPT Peptide Technologies, Berlin, Germany. Adenosine-5′-triphosphate (ATP), bovine serum albumine (BSA), dimethylsulphoxide (DMSO), 4-(2-Hydroxyethyl)piperazine-1-ethanesulfonic acid (Hepes), Brij-35, dithiothreitol (DTT) and Pluronic F-68 were purchased from Sigma-Aldrich, Munich, Germany. Tris(hydroxymethyl)-aminomethane (Tris), magnesium chloride, NaOH, 1M HCl and EDTA were obtained from Merck Biosciences, Darmstadt, Germany. “Complete” protease inhibitor was from Roche Diagnostics, Mannheim, Germany.
(§1) Test compounds were diluted to the appropriate concentrations in buffer 1 (25 mM Tris-HCl, pH 7.4, 5 mM MgCl2, 2 mM DTT, 0.02% (w/v) BSA, 0.01% Pluronic F-68 and 3% DMSO). The ROCK II enzyme was diluted to a concentration of 100 ng/mL in buffer 2 (25 mM Tris-HCl, pH 7.4, 5 mM MgCl2, 2 mM DTT and 0.02% (w/v) BSA). The peptide substrate and ATP were diluted to concentrations of 3 μM and 120 μM, respectively, in the buffer 2. Two μl of the compound solution were mixed with 2 μl of the diluted enzyme in a 384-well small volume microtiter plate (Greiner, Bio-One, Frickenhausen, Germany), and the kinase reaction was initiated by addition of 2 μl of the solution containing peptide substrate and ATP. After 60 min incubation at 32° C., the reaction was stopped by addition of 20 μl of a solution containing 100 mM Hepes-NaOH, pH 7.4, 0.015% (v/v) Brij-35, 45 mM EDTA and 0.227% chip coating reagent 1 (Caliper Lifescience Inc, Hopkinton, Mass.). Phosphorylation of the substrate peptide was then detected on a Caliper 3000 instrument essentially as described by Pommereau et al (J. Biomol. Screening 9(5), 409-416, 2004). Separation conditions were as follows: Pressure −1.3 psi, upstream voltage −1562 V, downstream voltage −500 V, sample sip time 200 ms. Positive controls (buffer 1 instead of compound) and negative controls (buffer 1 instead of compound and buffer 2 instead of ROCK II) were run in parallel on each plate.
The following products/compounds were tested in said assay by using the respective form (salt or free base) obtained as in the examples described above and the following activities were measured

The target in test [2] is T2, recombinant human PKA (Homo sapiens, UniProt P17612).
T2 construct: Active recombinant human PKA (residues 1-351, N-terminal His-tag); His-tag (N); purchased Invitrogen, Karlsruhe, Germany
Nature of the test: Determination of Protein Kinase A inhibition (Caliper peptide phosphorylation assay). The following applies: recombinant human PKA versus ROCK II. The method, then:
(§2) Determination of Protein Kinase A and Protein Kinase G Inhibition
(§3) To measure PKA and PKG1-beta inhibition, IC50 values were determined according to the following protocol:
(§4) Active recombinant human PKG1-beta (full-length, with N-terminal His-tag) was purchased from Millipore GmbH, Schwalbach, Germany. Active recombinant human PKA (residues 1-351, N-terminal His-tag) was obtained from Invitrogen, Karlsruhe, Germany. The peptide substrate, Fluorescein-[…]-COOH, was obtained from JPT Peptide Technologies, Berlin, Germany. Adenosine-5′-triphosphate (ATP), bovine serum albumine (BSA), dimethylsulphoxide (DMSO), 4-(2-Hydroxyethyl)piperazine-1-ethanesulfonic acid (Hepes), Brij-35, dithiothreitol (DTT) and Pluronic F-68 were purchased from Sigma-Aldrich, Munich, Germany. Tris(hydroxymethyl)-aminomethane (Tris), magnesium chloride, NaOH, 1M HCl and EDTA were obtained from Merck Biosciences, Darmstadt, Germany. “Complete” protease inhibitor was from Roche Diagnostics, Mannheim, Germany.
as §1, with “PKG1-beta and PKA were” for “The ROCK II enzyme was”, “concentrations” for “a concentration”, “150 ng/ml and 30 ng/ml, respectively,” for “100 ng/mL”, “2.” for “2 (25 mM Tris-HCl, pH 7.4, 5 mM MgCl2, 2 mM DTT and 0.02% (w/v) BSA).”, “kinase solution)” for “ROCK II)”, “plate. The following products/compounds were tested in said assay by using the respective form (salt or free base) obtained as in the examples described above and the following activities were measured.” for “plate.”

In test [3] the target is T3, recombinant human PKG1-beta (Homo sapiens, UniProt Q13976).
T3 construct: Active recombinant human PKG1-beta (full-length, with N-terminal His-tag); His-tag (N); purchased Millipore GmbH, Schwalbach, Germany
T3 sequence (Q13976 1-686 isoform Q13976-2): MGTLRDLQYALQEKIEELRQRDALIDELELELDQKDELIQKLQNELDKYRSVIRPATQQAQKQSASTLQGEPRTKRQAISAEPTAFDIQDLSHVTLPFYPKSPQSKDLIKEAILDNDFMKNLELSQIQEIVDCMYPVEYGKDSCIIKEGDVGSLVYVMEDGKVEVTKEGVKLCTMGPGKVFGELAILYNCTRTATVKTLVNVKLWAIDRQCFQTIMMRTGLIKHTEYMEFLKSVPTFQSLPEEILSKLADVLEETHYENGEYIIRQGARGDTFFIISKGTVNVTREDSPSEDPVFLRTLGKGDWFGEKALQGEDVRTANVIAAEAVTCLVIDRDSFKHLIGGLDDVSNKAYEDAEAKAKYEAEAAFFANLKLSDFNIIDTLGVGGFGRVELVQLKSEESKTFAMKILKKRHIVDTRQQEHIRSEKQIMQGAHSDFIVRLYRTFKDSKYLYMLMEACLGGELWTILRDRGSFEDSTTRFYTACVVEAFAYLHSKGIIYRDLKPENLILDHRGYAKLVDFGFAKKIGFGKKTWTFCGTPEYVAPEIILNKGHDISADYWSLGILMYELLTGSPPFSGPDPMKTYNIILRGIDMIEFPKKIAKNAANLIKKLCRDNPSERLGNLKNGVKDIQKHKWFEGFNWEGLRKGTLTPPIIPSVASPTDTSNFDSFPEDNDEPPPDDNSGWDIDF
The test can be described thus: Determination of Protein Kinase G inhibition (Caliper peptide phosphorylation assay). The settings on record: recombinant human PKG1-beta versus ROCK II. The method, then: as §2, §3, §4
as §1, with “PKG1-beta and PKA were” for “The ROCK II enzyme was”, “concentrations” for “a concentration”, “150 ng/ml and 30 ng/ml, respectively,” for “100 ng/mL”, “2.” for “2 (25 mM Tris-HCl, pH 7.4, 5 mM MgCl2, 2 mM DTT and 0.02% (w/v) BSA).”, “kinase solution)” for “ROCK II)”, “plate. The following products/compounds were tested in said assay by using the respective form (salt or free base) obtained as in the examples described above and the following activities were measured.” for “plate.”

This is an account of results in patent publication US8541449B2, “Substituted isoquinolines and isoquinolinones as Rho kinase inhibitors” (Sanofi, priority 2008, dated 2013).

Molecules are shown by their SMILES.

T1 sequence (O75116 11-552): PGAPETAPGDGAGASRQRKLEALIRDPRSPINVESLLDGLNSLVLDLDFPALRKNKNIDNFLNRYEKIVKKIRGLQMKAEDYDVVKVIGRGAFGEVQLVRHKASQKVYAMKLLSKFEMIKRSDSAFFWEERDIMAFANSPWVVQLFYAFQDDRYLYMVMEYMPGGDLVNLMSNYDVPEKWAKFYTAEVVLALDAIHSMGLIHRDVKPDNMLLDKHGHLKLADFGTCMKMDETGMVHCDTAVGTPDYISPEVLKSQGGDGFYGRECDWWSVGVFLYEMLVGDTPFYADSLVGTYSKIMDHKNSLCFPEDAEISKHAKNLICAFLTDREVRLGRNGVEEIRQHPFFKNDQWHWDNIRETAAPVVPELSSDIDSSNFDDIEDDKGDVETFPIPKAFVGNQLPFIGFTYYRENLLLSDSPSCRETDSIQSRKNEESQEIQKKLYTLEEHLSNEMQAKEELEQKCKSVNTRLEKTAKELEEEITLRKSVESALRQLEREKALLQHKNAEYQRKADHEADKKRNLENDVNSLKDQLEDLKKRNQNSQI

Take `CCC(N)C1CCC(Oc2cc3cc[nH]c(=O)c3cc2Cl)CC1` (single isomer, unassigned) [Example 129, 6-[4-(1-Amino-propyl)-cyclohexyoxy]-7-chloro-2H-isoquinolin-1-one]: the IC50 (commonly the concentration that gives 50% inhibition) in test [1] is 10 to 100 nM. Also, the “Selectivity against PKA” value in test [2] is recorded as more than 100. Further, the “Selectivity against PKG” value in test [3] was more than 10.
Consider `CCC(N)C1CCC(Oc2cc3cc[nH]c(=O)c3cc2Cl)CC1` (single isomer, unassigned) [Example 130, 6-[4-(1-Amino-propyl)-cyclohexyloxy]-7-chloro-2H-isoquinolin-1-one], for which the pIC50 entry in test [1] is “++++++ (7.0≦pIC50<8.0)”. Besides, the “Selectivity against PKA” value in test [2] was more than 300. Moreover, the “Selectivity against PKG” value in test [3] is more than 10.
Take `NC(C1CCC(Oc2cc3cc[nH]c(=O)c3cc2Cl)CC1)C1CC1` (single isomer, unassigned) [Example 131, 6-[4-(Amino-cyclopropyl-methyl)-cyclohexyloxy]-7-chloro-2H-isoquinolin-1-one]: the half-maximal inhibitory concentration (IC50) in test [1] is 100 to 1000 nM. Further, in test [2], the “Selectivity against PKA” value was more than 10. In test [3], the “Selectivity against PKG” value is listed as more than 10.
In the case of `CCC(N)[C@]1(c2ccc(F)cc2)CC[C@H](Oc2cc3cc[nH]c(=O)c3cc2Cl)CC1` (stereo partly drawn) [Example 1, cis-6-[4-(1-Amino-propyl)-4-(4-fluoro-phenyl)-cyclohexyloxy]-7-chloro-2H-isoquinolin-1-one], the pIC50 entry in test [1] was “+++++++ (8.0≦pIC50)”. For the same molecule, the “Selectivity against PKA” value in test [2] is more than 1000. The “Selectivity against PKG” value in test [3] is on record as more than 1000.
For the molecule `NC1([C@]2(c3ccccc3)CC[C@H](Oc3cc4cc[nH]c(=O)c4cc3Cl)CC2)CC1` [Example 2, cis-6-[4-(1-Amino-cyclopropyl)-4-phenyl-cyclohexyloxy]-7-chloro-2H-isoquinolin-1-one], the pIC50 entry in test [1] is recorded as “+++++++ (8.0≦pIC50)”. In test [2], the “Selectivity against PKA” value is given as more than 1000. In addition, in test [3], the “Selectivity against PKG” value was more than 1000.
Regarding `CCC(N)[C@]1(c2ccccc2)CC[C@H](Oc2cc3cc[nH]c(=O)c3cc2Cl)CC1` (stereo partly drawn) [Example 3, cis-6-{[4-(1-aminopropyl)-4-phenylcyclohexyl]oxy}-7-chloro-2H-isoquinolin-1-one], in test [1], the pIC50 entry is “+++++++ (8.0≦pIC50)”. Further, in test [2], the “Selectivity against PKA” value is more than 1000. Also, the “Selectivity against PKG” value in test [3] is on record as more than 300.
The corresponding values for `CCCC(N)[C@]1(c2ccccc2)CC[C@H](Oc2cc3cc[nH]c(=O)c3cc2Cl)CC1` (stereo partly drawn) [Example 4, cis-6-[4-(1-Amino-butyl)-4-phenyl-cyclohexyloxy]-7-chloro-2H-isoquinolin-1-one] are “+++++++ (8.0≦pIC50)”, more than 1000 and more than 100.
Regarding `CCCC(N)[C@]1(c2ccc(F)cc2)CC[C@H](Oc2cc3cc[nH]c(=O)c3cc2Cl)CC1` (stereo partly drawn) [Example 5, cis-6-[4-(1-Amino-butyl)-4-(4-fluoro-phenyl)-cyclo-hexyloxy]-7-chloro-2H-isoquinolin-1-one], in test [1], the pIC50 result is given as “+++++++ (8.0≦pIC50)”. In addition, the “Selectivity against PKA” value in test [2] is given as more than 1000. Also, the “Selectivity against PKG” value in test [3] is more than 300.
For `CCC(N)[C@]1(c2ccc(Br)cc2)CC[C@H](Oc2cc3cc[nH]c(=O)c3cc2Cl)CC1` (stereo partly drawn) [Example 6, cis-6-[4-(1-Amin-propyl)-4-(4-bromo-phenyl)-cyclohexyloxy]-7-chloro-2H-isoquinolin-1-one] the same measures were “+++++++ (8.0≦pIC50)”, more than 1000 and more than 300.
For `CCC(N)[C@]1(c2ccccc2Br)CC[C@H](Oc2cc3cc[nH]c(=O)c3cc2Cl)CC1` (stereo partly drawn) [Example 7, cis-6-[4-(1-Amino-propyl)-4-(2-bromo-phenyl)-cyclohexyloxy]-7-chloro-2H-isoquinolin-1-one] the same measures were “+++++++ (8.0≦pIC50)”, more than 1000 and more than 300.
For `CCC(N)[C@]1(c2ccc(C(F)(F)F)cc2)CC[C@H](Oc2cc3cc[nH]c(=O)c3cc2Cl)CC1` (stereo partly drawn) [Example 8, cis-6-[4-(1-Amino-propyl)-4-(4-trifluoromethyl-phenyl)-cyclo-hexyloxy]-7-chloro-2H-isoquinolin-1-one] the same measures were “+++++++ (8.0≦pIC50)”, more than 1000 and more than 300.
Turning to `CCC(N)[C@]1(c2ccccc2F)CC[C@H](Oc2cc3cc[nH]c(=O)c3cc2Cl)CC1` (stereo partly drawn) [Example 9, cis-6-[4-(1-Amino-propyl)-4-(2-fluoro-phenyl)-cyclohexyloxy]-7-chloro-2H-isoquinolin-1-one], the pIC50 entry in test [1] is listed as “+++++++ (8.0≦pIC50)”. Also, the “Selectivity against PKA” value in test [2] is more than 1000. Also, the “Selectivity against PKG” value in test [3] was more than 100.
The corresponding values for `CCC(N)[C@]1(c2ccccc2Cl)CC[C@H](Oc2cc3cc[nH]c(=O)c3cc2Cl)CC1` (stereo partly drawn) [Example 10, cis-6-[4-(1-Amino-propyl)-4-(2-chloro-phenyl)-cyclohexyloxy]-7-chloro-2H-iso quinolin-1-one] are “+++++++ (8.0≦pIC50)”, more than 100 and more than 100.
